Measured values reported in ChEMBL document CHEMBL1649470 (Antimicrob Agents Chemother, 2009).
Activity calls are given as the source filed them. No cut-off for these calls is given here.

How the values were obtained:
Influenza A virus [1] = assay: Antiviral activity against Influenza A virus (A/chicken/Yogjakarta/BBVet-IX/2004(H5N1)) infected in BALB/c mouse assessed as virus-induced change body weight at 20 mg/kg, po BID for 5 days measured on day 15 postinfection; assay type: functional
Influenza A virus [2] = assay: Antiviral activity against Influenza A virus (A/chicken/Yogjakarta/BBVet-IX/2004(H5N1)) infected in BALB/c mouse assessed as decrease in viral load in brain at 20 mg/kg, po BID for 5 days measured on day 9 postinfection; assay type: functional, organism-based; design: dose 20 mg/kg
Influenza A virus [3] = assay: Antiviral activity against Influenza A virus (A/duck/Laos/25/2006(H5N1)) infected in BALB/c mouse assessed as virus-induced change body weight at 20 mg/kg, po BID for 5 days measured on day 15 postinfection; assay type: functional
Influenza A virus [4] = assay: Antiviral activity against Influenza A virus (A/whooper swan/Mongolia/1/2009(H5N1)) infected in BALB/c mouse assessed as virus-induced change body weight at 20 mg/kg, po BID for 5 days measured on day 6 postinfection; assay type: functional
Influenza A virus [5] = assay: Antiviral activity against Influenza A virus (A/Thailand/1(KAN-1)/2004(H5N1)) infected in BALB/c mouse assessed as virus-induced change body weight at 20 mg/kg, po BID for 5 days measured on day 6 postinfection; assay type: functional
Influenza A virus [6] = assay: Antiviral activity against Influenza A virus (A/whooper swan/Mongolia/1/2009(H5N1)) infected in BALB/c mouse assessed as decrease in viral load in brain at 20 mg/kg, po BID for 5 days measured on day 9 postinfection; assay type: functional, organism-based; design: dose 20 mg/kg
Influenza A virus [7] = assay: Antiviral activity against Influenza A virus (A/whooper swan/Mongolia/1/2009(H5N1)) infected in BALB/c mouse assessed as virus-induced change body weight at 20 mg/kg, po BID for 5 days measured on day 15 postinfection; assay type: functional
Influenza A virus [8] = assay: Antiviral activity against Influenza A virus (A/whooper swan/Mongolia/1/2009(H5N1)) infected in BALB/c mouse assessed as decrease in viral load in lung at 20 mg/kg, po BID for 5 days measured on day 9 postinfection; assay type: functional, organism-based; design: dose 20 mg/kg
Influenza A virus [9] = assay: Antiviral activity against Influenza A virus (A/whooper swan/Mongolia/1/2009(H5N1)) infected in BALB/c mouse assessed as survival rate at 20 mg/kg, po BID for 5 days measured post last dose; assay type: functional; settings: 120 h
Influenza A virus [10] = assay: Antiviral activity against Influenza A virus (A/Thailand/1(KAN-1)/2004(H5N1)) infected in BALB/c mouse assessed as mean day to death at 20 mg/kg, po BID for 5 days measured post last dose; assay type: functional
Influenza A virus [11] = assay: Antiviral activity against Influenza A virus (A/duck/Laos/25/2006(H5N1)) infected in BALB/c mouse assessed as virus-induced change body weight at 20 mg/kg, po BID for 5 days measured on day 6 postinfection; assay type: functional
Influenza A virus [12] = settings: dose 20 mg/kg; route oral
Influenza A virus [13] = assay: Antiviral activity against Influenza A virus (A/Thailand/1(KAN-1)/2004(H5N1)) infected in BALB/c mouse assessed as decrease in viral load in brain at 20 mg/kg, po BID for 5 days measured on day 9 postinfection; assay type: functional, organism-based; design: dose 20 mg/kg
Influenza A virus [14] = assay: Antiviral activity against Influenza A virus (A/Thailand/1(KAN-1)/2004(H5N1)) infected in BALB/c mouse assessed as decrease in viral load in lung at 20 mg/kg, po BID for 5 days measured on day 9 postinfection; assay type: functional, organism-based; design: dose 20 mg/kg
Influenza A virus [15] = assay: Antiviral activity against Influenza A virus (A/Thailand/1(KAN-1)/2004(H5N1)) infected in BALB/c mouse assessed as survival rate at 20 mg/kg, po BID for 5 days measured post last dose; assay type: functional; settings: 120 h
Influenza A virus [16] = assay: Antiviral activity against Influenza A virus (A/whooper swan/Mongolia/1/2009(H5N1)) infected in BALB/c mouse assessed as decrease in viral load in brain at 20 mg/kg, po BID for 5 days measured on day 3 postinfection; assay type: functional, organism-based; design: dose 20 mg/kg
Influenza A virus [17] = settings: 120 h, route oral
Influenza A virus [18] = settings: dose 20 mg/kg; route oral; remark: listed apart in the source
Influenza A virus [19] = assay: Antiviral activity against Influenza A virus (A/chicken/Yogjakarta/BBVet-IX/2004(H5N1)) infected in BALB/c mouse assessed as survival rate at 20 mg/kg, po BID for 5 days measured post last dose; assay type: functional; settings: 120 h
Influenza A virus [20] = assay: Antiviral activity against Influenza A virus (A/chicken/Yogjakarta/BBVet-IX/2004(H5N1)) infected in BALB/c mouse assessed as virus-induced change body weight at 20 mg/kg, po BID for 5 days measured on day 9 postinfection; assay type: functional
Influenza A virus [21] = assay: Antiviral activity against Influenza A virus (A/chicken/Yogjakarta/BBVet-IX/2004(H5N1)) infected in BALB/c mouse assessed as virus-induced change body weight at 20 mg/kg, po BID for 5 days measured on day 6 postinfection; assay type: functional
Influenza A virus [22] = assay: Antiviral activity against Influenza A virus (A/whooper swan/Mongolia/1/2009(H5N1)) infected in BALB/c mouse assessed as mean day to death at 20 mg/kg, po BID for 5 days measured post last dose; assay type: functional
Influenza A virus [23] = assay: Antiviral activity against Influenza A virus (A/whooper swan/Mongolia/1/2009(H5N1)) infected in BALB/c mouse assessed as decrease in viral load in brain at 20 mg/kg, po BID for 5 days measured on day 6 postinfection; assay type: functional, organism-based; design: dose 20 mg/kg
Influenza A virus [24] = assay: Antiviral activity against Influenza A virus (A/Thailand/1(KAN-1)/2004(H5N1)) infected in BALB/c mouse assessed as decrease in viral load in lung at 20 mg/kg, po BID for 5 days measured on day 6 postinfection; assay type: functional, organism-based; design: dose 20 mg/kg
Influenza A virus [25] = assay: Antiviral activity against Influenza A virus (A/whooper swan/Mongolia/1/2009(H5N1)) infected in BALB/c mouse assessed as virus-induced change body weight at 20 mg/kg, po BID for 5 days measured on day 9 postinfection; assay type: functional
Influenza A virus [26] = assay: Antiviral activity against Influenza A virus (A/chicken/Yogjakarta/BBVet-IX/2004(H5N1)) infected in BALB/c mouse assessed as mean day to death at 20 mg/kg, po BID for 5 days measured post last dose; assay type: functional
Influenza A virus [27] = assay: Antiviral activity against Influenza A virus (A/duck/Laos/25/2006(H5N1)) infected in BALB/c mouse assessed as survival rate at 20 mg/kg, po BID for 5 days measured post last dose; assay type: functional; settings: 120 h
Influenza A virus [28] = assay: Antiviral activity against Influenza A virus (A/duck/Laos/25/2006(H5N1)) infected in BALB/c mouse assessed as virus-induced change body weight at 20 mg/kg, po BID for 5 days measured on day 9 postinfection; assay type: functional
Influenza A virus [29] = assay: Antiviral activity against Influenza A virus (A/Thailand/1(KAN-1)/2004(H5N1)) infected in BALB/c mouse assessed as virus-induced change body weight at 20 mg/kg, po BID for 5 days measured on day 15 postinfection; assay type: functional
Influenza A virus [30] = assay: Antiviral activity against Influenza A virus (A/duck/Laos/25/2006(H5N1)) infected in BALB/c mouse assessed as decrease in viral load in brain at 20 mg/kg, po BID for 5 days measured on day 9 postinfection; assay type: functional, organism-based; design: dose 20 mg/kg
Influenza A virus [31] = assay: Antiviral activity against Influenza A virus (A/duck/Laos/25/2006(H5N1)) infected in BALB/c mouse assessed as mean day to death at 20 mg/kg, po BID for 5 days measured post last dose; assay type: functional
Influenza A virus [32] = assay: Antiviral activity against Influenza A virus (A/duck/Laos/25/2006(H5N1)) infected in BALB/c mouse assessed as decrease in viral load in lung at 20 mg/kg, po BID for 5 days measured on day 3 postinfection; assay type: functional, organism-based; design: dose 20 mg/kg
Influenza A virus [33] = assay: Antiviral activity against Influenza A virus (A/Thailand/1(KAN-1)/2004(H5N1)) infected in BALB/c mouse assessed as virus-induced change body weight at 20 mg/kg, po BID for 5 days measured on day 9 postinfection; assay type: functional
Influenza A virus [34] = assay: Antiviral activity against Influenza A virus (A/chicken/Yogjakarta/BBVet-IX/2004(H5N1)) infected in BALB/c mouse assessed as decrease in viral load in lung at 20 mg/kg, po BID for 5 days measured on day 9 postinfection; assay type: functional, organism-based; design: dose 20 mg/kg

CCOC(=O)C1=C[C@@H](OC(CC)CC)[C@H](NC(C)=O)[C@@H](N)C1 [OSELTAMIVIR]
Activity (Influenza A virus [1]): 1.2%
Activity (Influenza A virus [2]): Active
Activity (Influenza A virus [3]): -7.6%
Activity (Influenza A virus [4]): -7%
Activity (Influenza A virus [5]): -10.7%
Activity (Influenza A virus [6]): inactive
Activity (Influenza A virus [7]): -10.6%
Activity (Influenza A virus [8]): Active
survival at 20 mg/kg (Influenza A virus [9]): 70%
Time (Influenza A virus [10]): 10 days
Activity (Influenza A virus [11]): -0.2%
Activity (Influenza A virus [12]): -24.4%
Activity (Influenza A virus [13]): inactive
Activity (Influenza A virus [14]): Active
survival at 20 mg/kg (Influenza A virus [15]): 80%
Activity (Influenza A virus [16]): inactive
survival at 20 mg/kg (Influenza A virus [17]): 0%
Time (Influenza A virus [18]): 8 days
survival at 20 mg/kg (Influenza A virus [19]): 100%
Activity (Influenza A virus [20]): -11.2%
Activity (Influenza A virus [21]): -22%
Time (Influenza A virus [22]): 9.7 days
Activity (Influenza A virus [23]): inactive
Activity (Influenza A virus [24]): Active
Activity (Influenza A virus [25]): -18.2%
Time (Influenza A virus [26]): >21 days
survival at 20 mg/kg (Influenza A virus [27]): 60%
Activity (Influenza A virus [28]): -20.3%
Activity (Influenza A virus [29]): -2.1%
Activity (Influenza A virus [30]): Active
Time (Influenza A virus [31]): 13.5 days
inhibition (Influenza A virus [32]): Active
Activity (Influenza A virus [33]): -17.6%
Activity (Influenza A virus [34]): Active
